Patent US11096389B2, “Alkanolamine sulfate water conditioners” (Indorama Ventures Oxides LLC, priority 2014, dated 2021)
Several values for one entry are separate records, joined by “and”; a condition that tells them apart may be missing. Identical values can stand only once.

What was measured:
amaranth = assay: Field trial, water conditioning effect with glyphosate, visual injury; assay type: in vivo; conditions: for % Control 2 Weeks Post Treatment, Mean / % Control 4 Weeks Post Treatment, Mean: mean of 3 plots; for % Control 2 Weeks Post Treatment / % Control 4 Weeks Post Treatment: single plots
Method: (§1) A field trial was conducted to compare the efficacy of the herbicide glyphosate (diluted to less than its label use rate with distilled water or water containing 1000 ppm (calcium+magnesium)), with or without water conditioning agents of the present disclosure. In this trial, the glyphosate-containing spray was applied to flax, amaranth, sunflower and corn. The glyphosate used in this field trial was Touchdown® HT herbicide and its spray application rate was kept constant at 9.6 fl oz/a. A non-ionic surfactant (Activator 90 surfactant) was also applied with the herbicide at a constant spray application rate of 0.5% v/v. Finally, the water conditioning agents of the present disclosure, when present, were applied at spray application rates of 0.75% v/v and 1.0% v/v. Flax, amaranth, sunflower and corn, which had been plotted at various locations throughout the field, were spray treated and visually assessed on a particular day after treatment for injury on a scale of 0 to 100%, with zero representing “no” injury and 100% representing “complete” injury or death. The water conditioning agents tested during this trial included: […]

corn = assay: as above; assay type: in vivo; conditions: for % Control 2 Weeks Post Treatment, Mean / % Control 4 Weeks Post Treatment, Mean: mean of 3 plots; for % Control 2 Weeks Post Treatment / % Control 4 Weeks Post Treatment: single plots
Method: as §1

flax = assay: as above; assay type: in vivo; conditions: for % Control 2 Weeks Post Treatment, Mean / % Control 4 Weeks Post Treatment, Mean: mean of 3 plots; for % Control 2 Weeks Post Treatment / % Control 4 Weeks Post Treatment: single plots
Method: as §1

sunflower = assay: as above; assay type: in vivo; conditions: for % Control 2 Weeks Post Treatment, Mean / % Control 4 Weeks Post Treatment, Mean: mean of 3 plots; for % Control 2 Weeks Post Treatment / % Control 4 Weeks Post Treatment: single plots
Method: as §1

[1] = Compatibility with glyphosate herbicide solution; assay type: physicochemical; conditions: 950 g water with 1000 ppm calcium, 30 g MEA sulfate solution, 20 g ROUNDUP ULTRA MAX
Method: A mixture of 950 grams water containing 1000 ppm calcium, 30 grams of the MEA sulfate solution from Example 1, and 20 grams of ROUNDUP ULTRA® MAX herbicide (The Scotts Company LLC of Marysville, Ohio) was prepared.

[2] = TGA; mixture of water, dicamba-DGA and water conditioning agent at field-use concentrations
Description: A comparison of the increase in auxin herbicide volatility in various water conditioning agents was done by preparing mixtures of water, herbicide (dicamba diglycolamine (DGA) salt in this case), and water conditioning agent. Concentration of the solutions mimics actual agricultural field-use concentrations. In this test, done using thermogravimetric analysis (TGA), a comparison was made between a control (dicamba-DGA alone) to dicamba-DGA plus a water conditioning agent.

[3] = glyphosate in distilled water + non-ionic surfactant
[4] = glyphosate in hard water + non-ionic surfactant, no water conditioner
[5] = glyphosate in hard water + non-ionic surfactant + sulfate at 0.75% v/v
[6] = glyphosate in hard water + non-ionic surfactant + sulfate at 1.0% v/v

O=C(O)CNCP(=O)(O)O [Glyphosate, N-(phosphonomethyl) glycine, reference compound]
% Control 2 Weeks Post Treatment, Mean (amaranth; [3]): 53.3%
% Control 4 Weeks Post Treatment, Mean (amaranth; [3]): 56.7%
% Control 2 Weeks Post Treatment (amaranth; [3]): 50% and 60%
% Control 4 Weeks Post Treatment (amaranth; [3]): 55% and 60%
% Control 2 Weeks Post Treatment, Mean (amaranth; [4]): 33.3%
% Control 4 Weeks Post Treatment, Mean (amaranth; [4]): 33.3%
% Control 2 Weeks Post Treatment (amaranth; [4]): 30% and 35%
% Control 4 Weeks Post Treatment (amaranth; [4]): 30% and 35%
% Control 2 Weeks Post Treatment, Mean (corn; [3]): 53.3%
% Control 4 Weeks Post Treatment, Mean (corn; [3]): 56.7%
% Control 2 Weeks Post Treatment (corn; [3]): 50% and 60%
% Control 4 Weeks Post Treatment (corn; [3]): 55% and 60%
% Control 2 Weeks Post Treatment, Mean (corn; [4]): 33.3%
% Control 4 Weeks Post Treatment, Mean (corn; [4]): 33.3%
% Control 2 Weeks Post Treatment (corn; [4]): 30% and 35%
% Control 4 Weeks Post Treatment (corn; [4]): 30% and 35%
% Control 2 Weeks Post Treatment, Mean (flax; [3]): 53.3%
% Control 4 Weeks Post Treatment, Mean (flax; [3]): 56.7%
% Control 2 Weeks Post Treatment (flax; [3]): 50% and 60%
% Control 4 Weeks Post Treatment (flax; [3]): 55% and 60%
% Control 2 Weeks Post Treatment, Mean (flax; [4]): 33.3%
% Control 4 Weeks Post Treatment, Mean (flax; [4]): 33.3%
% Control 2 Weeks Post Treatment (flax; [4]): 30% and 35%
% Control 4 Weeks Post Treatment (flax; [4]): 30% and 35%
% Control 2 Weeks Post Treatment, Mean (sunflower; [3]): 53.3%
% Control 4 Weeks Post Treatment, Mean (sunflower; [3]): 56.7%
% Control 2 Weeks Post Treatment (sunflower; [3]): 50% and 60%
% Control 4 Weeks Post Treatment (sunflower; [3]): 55% and 60%
% Control 2 Weeks Post Treatment, Mean (sunflower; [4]): 33.3%
% Control 4 Weeks Post Treatment, Mean (sunflower; [4]): 33.3%
% Control 2 Weeks Post Treatment (sunflower; [4]): 30% and 35%
% Control 4 Weeks Post Treatment (sunflower; [4]): 30% and 35%

monoethanolamine sulfate [Sulfate 1]
physical and chemical compatibility with glyphosate-containing formulation [1]: clear, homogenous solution
% Control 2 Weeks Post Treatment, Mean (amaranth; [5]): 72.7%
% Control 4 Weeks Post Treatment, Mean (amaranth; [5]): 72.7%
% Control 2 Weeks Post Treatment (amaranth; [5]): 75% and 68%
% Control 4 Weeks Post Treatment (amaranth; [5]): 75% and 68%
% Control 2 Weeks Post Treatment, Mean (amaranth; [6]): 81.7%
% Control 4 Weeks Post Treatment, Mean (amaranth; [6]): 71.7%
% Control 2 Weeks Post Treatment (amaranth; [6]): 80% and 85%
% Control 4 Weeks Post Treatment (amaranth; [6]): 70% and 75%
% Control 2 Weeks Post Treatment, Mean (corn; [5]): 68.7%
% Control 4 Weeks Post Treatment, Mean (corn; [5]): 79.3%
% Control 2 Weeks Post Treatment (corn; [5]): 68% and 70%
% Control 4 Weeks Post Treatment (corn; [5]): 80% and 78%
% Control 2 Weeks Post Treatment, Mean (corn; [6]): 77.7%
% Control 4 Weeks Post Treatment, Mean (corn; [6]): 86%
% Control 2 Weeks Post Treatment (corn; [6]): 80% and 75% and 78%
% Control 4 Weeks Post Treatment (corn; [6]): 88% and 85%
% Control 2 Weeks Post Treatment, Mean (flax; [5]): 51.7%
% Control 4 Weeks Post Treatment, Mean (flax; [5]): 51.7%
% Control 2 Weeks Post Treatment (flax; [5]): 45% and 50% and 60%
% Control 4 Weeks Post Treatment (flax; [5]): 45% and 50% and 60%
% Control 2 Weeks Post Treatment, Mean (flax; [6]): 48.3%
% Control 4 Weeks Post Treatment, Mean (flax; [6]): 48.3%
% Control 2 Weeks Post Treatment (flax; [6]): 55% and 45%
% Control 4 Weeks Post Treatment (flax; [6]): 55% and 45%
% Control 2 Weeks Post Treatment, Mean (sunflower; [5]): 71%
% Control 4 Weeks Post Treatment, Mean (sunflower; [5]): 71%
% Control 2 Weeks Post Treatment (sunflower; [5]): 70% and 75% and 68%
% Control 4 Weeks Post Treatment (sunflower; [5]): 70% and 75% and 68%
% Control 2 Weeks Post Treatment, Mean (sunflower; [6]): 85%
% Control 4 Weeks Post Treatment, Mean (sunflower; [6]): 80%
% Control 2 Weeks Post Treatment (sunflower; [6]): 85%
% Control 4 Weeks Post Treatment (sunflower; [6]): 80%

COc1c(Cl)ccc(Cl)c1C(=O)O [Dicamba-DGA, 3,6-dichloro-2-methoxybenzoic acid]
Relative Volatility [2]: 0.01185
